Earlier results as cited in patent US20220323396A1, “COMPOSITIONS AND METHODS FOR TREATING VIRAL INFECTION USING ANTIVIRAL COCKTAILS” (priority 2020, published 2022).

How the values were obtained:
[1] = molecular target: thrombin (Homo sapiens, UniProt P00734); details: values ranging; potent, specific and reversible inhibition
[2] = molecular target: human tryptase (Homo sapiens, UniProt Q15661)
human tryptase, sequence (Q15661 31-275): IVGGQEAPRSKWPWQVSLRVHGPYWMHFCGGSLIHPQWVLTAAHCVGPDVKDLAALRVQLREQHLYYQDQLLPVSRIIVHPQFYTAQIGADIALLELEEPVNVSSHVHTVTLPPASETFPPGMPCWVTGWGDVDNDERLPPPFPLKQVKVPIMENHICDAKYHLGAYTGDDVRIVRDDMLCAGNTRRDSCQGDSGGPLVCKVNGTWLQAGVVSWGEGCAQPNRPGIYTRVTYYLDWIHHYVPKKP

For `N=C(N)c1ccc2cc(OC(=O)c3ccc(N=C(N)N)cc3)ccc2c1` [Nafamostat], the IC50 [1] is listed as 330 to 1900 nM and the IC50 [2] is listed as 0.016 nM.
